Source: publication PMC10177510, “A Multicenter, Open-Label, Phase I/II Study of FN-1501 in Patients with Advanced Solid Tumors” (Cancers, 2023)

Test: Phase I/II dose escalation: safety and tolerability (DLT, TEAE)
Format: in vivo
Protocol: This Phase 1/2, FIH, open-label, multi-center, single-arm, dose-escalation study was conducted in pts with histologically or cytologically confirmed advanced solid tumors or R/R AML.
In the absence of worrisome toxicity, the remaining pts could be enrolled and dosed in that cohort. Safety evaluations were performed by investigators, the medical monitor, and the Sponsor. A Safety Monitoring Committee determined dose levels to be administered during dose escalation based on data available from the current and previous dose levels.

CN1CCN(Cc2ccc(NC(=O)c3[nH]ncc3Nc3ncnc4[nH]ccc34)cc2)CC1 [FN-1501]
Dose-Limiting Toxicity (2.5 mg/day, 4 patients): 0
Abdominal pain, patients with event (2.5 mg/day, N = 4): 1
Back pain, patients with event (2.5 mg/day, N = 4): 1
Constipation, patients with event (2.5 mg/day, N = 4): 0
Decreased appetite, patients with event (2.5 mg/day, N = 4): 1
Diarrhea, patients with event (2.5 mg/day, N = 4): 0
Dizziness, patients with event (2.5 mg/day, N = 4): 0
Dyspnea, patients with event (2.5 mg/day, N = 4): 1
Fatigue, Grade ≥ 3 TEAE, n (%) (2.5 mg/day, N = 4): 1 (25)
Fatigue, patients with event (2.5 mg/day, N = 4): 1
Infusion-related reaction, patients with event (2.5 mg/day, N = 4): 0
Nausea, patients with event (2.5 mg/day, N = 4): 1
Oedema peripheral, patients with event (2.5 mg/day, N = 4): 1
Pyrexia, patients with event (2.5 mg/day, N = 4): 0
Total number of TEAEs (2.5 mg/day, N = 4): 20
Total patients with at least 1 TEAE (2.5 mg/day, N = 4): 4
Vomiting, patients with event (2.5 mg/day, N = 4): 1
Dose-Limiting Toxicity (5 mg/day, 3 patients): 0
Abdominal pain, patients with event (5 mg/day, N = 3): 1
Back pain, patients with event (5 mg/day, N = 3): 0
Constipation, patients with event (5 mg/day, N = 3): 1
Decreased appetite, patients with event (5 mg/day, N = 3): 0
Diarrhea, patients with event (5 mg/day, N = 3): 1
Diarrhoea, Grade ≥ 3 TEAE, n (%) (5 mg/day, N = 3): 1
Dizziness, patients with event (5 mg/day, N = 3): 0
Dyspnea, patients with event (5 mg/day, N = 3): 0
Fatigue, patients with event (5 mg/day, N = 3): 1
Infusion-related reaction, patients with event (5 mg/day, N = 3): 1
Nausea, patients with event (5 mg/day, N = 3): 1
Oedema peripheral, patients with event (5 mg/day, N = 3): 1
Pyrexia, patients with event (5 mg/day, N = 3): 1
Small intestinal obstruction, Grade ≥ 3 TEAE, n (%) (5 mg/day, N = 3): 1 (33)
Total number of TEAEs (5 mg/day, N = 3): 23
Total patients with at least 1 TEAE (5 mg/day, N = 3): 3
Vomiting, patients with event (5 mg/day, N = 3): 1
Dose-Limiting Toxicity (10 mg/day, 5 patients): 0
Abdominal pain, patients with event (10 mg/day, N = 5): 0
Back pain, patients with event (10 mg/day, N = 5): 0
Bacterial sepsis, Grade ≥ 3 TEAE, n (%) (10 mg/day, N = 5): 1
Constipation, patients with event (10 mg/day, N = 5): 1
Decreased appetite, patients with event (10 mg/day, N = 5): 0
Delirium, Grade ≥ 3 TEAE, n (%) (10 mg/day, N = 5): 1
Diarrhea, patients with event (10 mg/day, N = 5): 0
Dizziness, patients with event (10 mg/day, N = 5): 0
Dyspnea, patients with event (10 mg/day, N = 5): 1
Fatigue, patients with event (10 mg/day, N = 5): 2
Infusion-related reaction, patients with event (10 mg/day, N = 5): 0
Lung infection, Grade ≥ 3 TEAE, n (%) (10 mg/day, N = 5): 1
Nausea, patients with event (10 mg/day, N = 5): 1
Oedema peripheral, patients with event (10 mg/day, N = 5): 0
Pyrexia, patients with event (10 mg/day, N = 5): 0
Stomatitis, Grade ≥ 3 TEAE, n (%) (10 mg/day, N = 5): 1
Total number of TEAEs (10 mg/day, N = 5): 25
Total patients with at least 1 TEAE (10 mg/day, N = 5): 4
Vomiting, patients with event (10 mg/day, N = 5): 1
Dose-Limiting Toxicity (15 mg/day, 3 patients): 0
Abdominal pain, patients with event (15 mg/day, N = 3): 1
Back pain, patients with event (15 mg/day, N = 3): 1
Catheter site infection, Grade ≥ 3 TEAE, n (%) (15 mg/day, N = 3): 1
Constipation, patients with event (15 mg/day, N = 3): 1
Decreased appetite, patients with event (15 mg/day, N = 3): 0
Diarrhea, patients with event (15 mg/day, N = 3): 2
Dizziness, patients with event (15 mg/day, N = 3): 2
Dyspnea, patients with event (15 mg/day, N = 3): 0
Fatigue, patients with event (15 mg/day, N = 3): 0
Infusion-related reaction, patients with event (15 mg/day, N = 3): 1
Nausea, patients with event (15 mg/day, N = 3): 2
Oedema peripheral, patients with event (15 mg/day, N = 3): 0
Pyrexia, patients with event (15 mg/day, N = 3): 1
Total number of TEAEs (15 mg/day, N = 3): 41
Total patients with at least 1 TEAE (15 mg/day, N = 3): 3
Vascular access complication, Grade ≥ 3 TEAE, n (%) (15 mg/day, N = 3): 1
Vomiting, patients with event (15 mg/day, N = 3): 0
Dose-Limiting Toxicity (22.5 mg/day, 4 patients): 0
Abdominal pain, Grade ≥ 3 TEAE, n (%) (22.5 mg/day, N = 4): 1
Abdominal pain, patients with event (22.5 mg/day, N = 4): 2
Back pain, patients with event (22.5 mg/day, N = 4): 0
Constipation, patients with event (22.5 mg/day, N = 4): 1
Decreased appetite, patients with event (22.5 mg/day, N = 4): 2
Diarrhea, patients with event (22.5 mg/day, N = 4): 0
Dizziness, patients with event (22.5 mg/day, N = 4): 1
Dyspnea, patients with event (22.5 mg/day, N = 4): 1
Fatigue, patients with event (22.5 mg/day, N = 4): 2
Infusion-related reaction, patients with event (22.5 mg/day, N = 4): 0
Nausea, patients with event (22.5 mg/day, N = 4): 1
Oedema peripheral, patients with event (22.5 mg/day, N = 4): 0
Pyrexia, patients with event (22.5 mg/day, N = 4): 1
Total number of TEAEs (22.5 mg/day, N = 4): 26
Total patients with at least 1 TEAE (22.5 mg/day, N = 4): 4
Vomiting, patients with event (22.5 mg/day, N = 4): 1
Dose-Limiting Toxicity (30 mg/day, 3 patients): 0
Abdominal pain, patients with event (30 mg/day, N = 3): 1
Back pain, patients with event (30 mg/day, N = 3): 0
Constipation, patients with event (30 mg/day, N = 3): 0
Decreased appetite, patients with event (30 mg/day, N = 3): 0
Diarrhea, patients with event (30 mg/day, N = 3): 1
Dizziness, patients with event (30 mg/day, N = 3): 0
Dyspnea, patients with event (30 mg/day, N = 3): 0
Fatigue, patients with event (30 mg/day, N = 3): 1
Hyponatraemia, Grade ≥ 3 TEAE, n (%) (30 mg/day, N = 3): 1
Infusion-related reaction, patients with event (30 mg/day, N = 3): 0
Nausea, patients with event (30 mg/day, N = 3): 1
Oedema peripheral, patients with event (30 mg/day, N = 3): 0
Pyrexia, patients with event (30 mg/day, N = 3): 0
Syncope, Grade ≥ 3 TEAE, n (%) (30 mg/day, N = 3): 1 (33)
Total number of TEAEs (30 mg/day, N = 3): 16
Total patients with at least 1 TEAE (30 mg/day, N = 3): 3
Vomiting, patients with event (30 mg/day, N = 3): 0
Dose-Limiting Toxicity (40 mg/day, 4 patients): 0
Abdominal distension, Grade ≥ 3 TEAE, n (%) (40 mg/day, N = 4): 1 (25)
Abdominal pain, patients with event (40 mg/day, N = 4): 0
Back pain, patients with event (40 mg/day, N = 4): 0
Blood alkaline phosphatase increased, Grade ≥ 3 TEAE, n (%) (40 mg/day, N = 4): 1 (25)
Blood bilirubin increased, Grade ≥ 3 TEAE, n (%) (40 mg/day, N = 4): 1 (25)
Constipation, patients with event (40 mg/day, N = 4): 0
Decreased appetite, patients with event (40 mg/day, N = 4): 0
Diarrhea, patients with event (40 mg/day, N = 4): 1
Dizziness, patients with event (40 mg/day, N = 4): 0
Dyspnea, patients with event (40 mg/day, N = 4): 0
Fatigue, patients with event (40 mg/day, N = 4): 1
Hyponatraemia, Grade ≥ 3 TEAE, n (%) (40 mg/day, N = 4): 1
Infusion-related reaction, patients with event (40 mg/day, N = 4): 0
Nausea, patients with event (40 mg/day, N = 4): 0
Oedema peripheral, patients with event (40 mg/day, N = 4): 1
Peritonitis, Grade ≥ 3 TEAE, n (%) (40 mg/day, N = 4): 1 (25)
Pyrexia, patients with event (40 mg/day, N = 4): 1
Total number of TEAEs (40 mg/day, N = 4): 21
Total patients with at least 1 TEAE (40 mg/day, N = 4): 4
Vomiting, patients with event (40 mg/day, N = 4): 1
Dose-Limiting Toxicity (54 mg/day, 3 patients): 0
Abdominal pain, patients with event (54 mg/day, N = 3): 0
Anaemia, Grade ≥ 3 TEAE, n (%) (54 mg/day, N = 3): 1 (33)
Back pain, patients with event (54 mg/day, N = 3): 0
Constipation, patients with event (54 mg/day, N = 3): 0
Decreased appetite, patients with event (54 mg/day, N = 3): 0
Diarrhea, patients with event (54 mg/day, N = 3): 0
Dizziness, patients with event (54 mg/day, N = 3): 0
Dyspnea, patients with event (54 mg/day, N = 3): 0
Fatigue, Grade ≥ 3 TEAE, n (%) (54 mg/day, N = 3): 1 (33)
Fatigue, patients with event (54 mg/day, N = 3): 2
Infusion-related reaction, patients with event (54 mg/day, N = 3): 1
Nausea, patients with event (54 mg/day, N = 3): 0
Oedema peripheral, patients with event (54 mg/day, N = 3): 0
Pyrexia, patients with event (54 mg/day, N = 3): 0
Total number of TEAEs (54 mg/day, N = 3): 12
Total patients with at least 1 TEAE (54 mg/day, N = 3): 3
Vomiting, patients with event (54 mg/day, N = 3): 0
Dose-Limiting Toxicity (72 mg/day, 3 patients): 0
Abdominal pain, patients with event (72 mg/day, N = 3): 1
Back pain, patients with event (72 mg/day, N = 3): 1
Constipation, patients with event (72 mg/day, N = 3): 0
Decreased appetite, patients with event (72 mg/day, N = 3): 0
